Key:
alpha1 adrenoceptors = biological target: T1, alpha1 adrenoceptors (Rattus norvegicus, UniProt P15823); assay: Affinity for alpha1 adrenoceptors: displacement of tritiated prazosin on rat cardiac membranes; format: binding; settings: Ki from IC50 by Cheng and Prusoff, read-out: Inhibition constants at alpha-1-adrenoceptor (Ki)
T1 construct: from tissue; host or cells: rat cardiac membranes
T1 sequence (P15823 1-515): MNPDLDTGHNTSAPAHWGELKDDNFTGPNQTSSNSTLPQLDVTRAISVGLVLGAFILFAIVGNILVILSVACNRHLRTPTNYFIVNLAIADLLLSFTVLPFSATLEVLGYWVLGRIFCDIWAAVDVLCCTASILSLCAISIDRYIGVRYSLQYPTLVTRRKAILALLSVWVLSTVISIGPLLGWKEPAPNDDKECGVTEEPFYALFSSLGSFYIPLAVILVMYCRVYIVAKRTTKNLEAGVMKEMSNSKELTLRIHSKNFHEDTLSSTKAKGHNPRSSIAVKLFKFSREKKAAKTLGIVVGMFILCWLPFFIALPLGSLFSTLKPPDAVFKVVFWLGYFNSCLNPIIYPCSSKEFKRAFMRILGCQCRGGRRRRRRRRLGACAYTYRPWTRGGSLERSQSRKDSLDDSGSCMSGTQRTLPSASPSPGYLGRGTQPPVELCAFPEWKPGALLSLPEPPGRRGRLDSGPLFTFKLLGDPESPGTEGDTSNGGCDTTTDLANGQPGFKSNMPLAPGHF
Description: The affinity of compounds of the general formula I for alpha1 adrenoceptors was established using the method described by R. S. Williams, D. F. Dukes and […] in J. Cardiovasc. Pharmacol. 3, 522-531 (1981). In this method the competitive displacement of tritiated prazosin (2-(4-(2-furoyl)-1-piperazinyl)-4-amino-6,7-dimethoxy-quinazoline) on rat-cardiac membranes by the test substances is measured, and the IC50 (50% inhibition concentration) is determined as that concentration which brings about a 50% inhibition of the specific binding of tritiated prazosin to the alpha1 adrenoceptors in rat cardiac membranes.
The concentration-independent inhibitor constants K1 -alpha1 were determined from the IC50 values as stated by Y. Cheng and H. W.Prusoff in Biochem. Pharmacol. 22, 3099-3108 (1973).

5-HT-1A receptors = biological target: T2, 5-HT-1A receptors (Rattus norvegicus, UniProt P19327); assay: Affinity for 5-HT-1A receptors: displacement of tritiated 8-OH-DPAT on rat brain membranes; format: binding; settings: Ki from IC50 by Cheng and Prusoff, read-out: Inhibition constants at 5-HT1A-receptor (Ki)
T2 construct: 5-HT-1A receptors in rat brain membranes; from tissue; host or cells: rat brain membranes
T2 sequence (P19327 1-422): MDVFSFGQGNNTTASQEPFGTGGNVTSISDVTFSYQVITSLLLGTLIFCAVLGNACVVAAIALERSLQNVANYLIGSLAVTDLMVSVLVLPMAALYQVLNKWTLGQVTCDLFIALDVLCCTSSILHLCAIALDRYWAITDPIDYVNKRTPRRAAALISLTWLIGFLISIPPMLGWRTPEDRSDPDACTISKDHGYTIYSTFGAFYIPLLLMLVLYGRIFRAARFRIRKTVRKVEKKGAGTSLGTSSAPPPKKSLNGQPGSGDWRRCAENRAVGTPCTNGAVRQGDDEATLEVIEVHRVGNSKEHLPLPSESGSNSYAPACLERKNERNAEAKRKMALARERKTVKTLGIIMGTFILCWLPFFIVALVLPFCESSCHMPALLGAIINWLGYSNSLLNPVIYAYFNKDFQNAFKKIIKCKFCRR
Description: The affinity of compounds of the general formula I for 5-HT-1A receptors was determined by the method described by H. Gozlan, S. Elmestikawy, L. Pichat, J. Glowinski and M. Hamon in Nature 305, 140-142 (1983). In this method the competitive displacement of tritiated 8-OH-DPAT (8-hydroxy-(di-n-propylamino)tetralin) on rat brain membranes by the test substances is measured, and the IC50 (50% inhibition concentration) is determined as that concentration which brings about a 50% inhibition of the specific binding of tritiated 8-OH-DPAT to 5-HT-1A receptors in rat brain membranes.
The concentration-independent inhibitor constants K1 -alpha1 and K1 -5HT-1A were determined from the IC50 values as stated by Y. Cheng and H. W. Prusoff in Biochem. Pharmacol. 22, 3099-3108 (1973).

| Ki (alpha1 adrenoceptors) [nM] | Ki (5-HT-1A receptors) [nM] | SMILES |
| --- | --- | --- |
| 17.3 | 118 | COc1ccccc1N1CCN(CCNc2cnn(CCN(C)C)c(=O)c2Cl)CC1 [2-(Dimethylaminoethyl)-4-chloro-5-((2-(4-(2-methoxyphenyl)piperazinyl-1)ethyl)amino)-3(2H)-pyridazinone] |
| 10.8 | 86.3 | COc1ccccc1N1CCN(CCNc2cnn(CCO)c(=O)c2Cl)CC1 [2-Hydroxyethl-4-chloro-5-((2-(4-(2-methoxyphenyl)piperazinyl-1-)ethyl)amino-3(2H)-pyridazinone] |
| 17.7 | 18.2 | COc1ccccc1N1CCN(CCNc2ccnn(CCO)c2=O)CC1 [2-Hydroxyethyl-4-((2-(4-(2-methoxyphenyl)piperazinyl-1)ethyl)amino)-3(2H)-pyridazinone] |
| 128 | 55.8 | COc1ccccc1N1CCN(CCNc2cnn(CCO)c(=O)c2)CC1 [2-Hydroxyethyl-5-((2-(4-(2-methoxyphenyl)piperazinyl-1)ethyl)amino)-3(2H)-pyridazinone] |
| 2.42 | 25.6 | COc1ccccc1N1CCN(CCNc2c(Cl)cnn(CCO)c2=O)CC1 [2-Hydroxyethyl-5-chloro-4-((2-(4-(2-methoxyphenyl)piperazinyl-1)ethyl)amino)-3(2H)-pyridazinone] |
| 65.5 | 36.5 | Cn1nccc(NCCN2CCN(c3ccccc3O)CC2)c1=O [2-Methyl-4-((2-(4-(2-hydroxyphenyl)piperazinyl-1)ethyl)amino)-3(2H)-pyridazinone] |
| 171 | 272 | COc1cc(C)ccc1N1CCN(CCNc2ccnn(C)c2=O)CC1 [2-Methyl-4-((2-(4-(2-methoxy-4-methylphenyl)piperazinyl-1)ethyl)amino)-3(2H)-pyridazinone] |
| 73.6 | 186 | COc1ccc(C)cc1N1CCN(CCNc2ccnn(C)c2=O)CC1 [2-Methyl-4-((2-(4-(2-methoxy-5-methylphenyl)piperazinyl-1)ethyl)amino)-3(2H)-pyridazinone] |
| 175 | 4.56 | Cn1nccc(NCCN2CCN(c3cccc(C(F)(F)F)c3)CC2)c1=O [2-Methyl-4-((2-(4-(3-trifluoromethylphenyl)piperazinyl-1)ethyl)amino-3(2H)-pyridazinone] |
| 90.3 | 261 | Cn1nccc(NCCN2CCN(c3ccccc3)CC2)c1=O [2-Methyl-4-((2-(4-phenylpiperazinyl-1)ethyl)amino)-3(2H) pyridazinone] |
| 68 | 40.7 | CCN(CCN1CCN(c2ccccc2OC)CC1)c1ccnn(C)c1=O [2-Methyl-4-(ethyl-(2-(4-(2-methoxyphenyl)piperazinyl-1)ethyl)amino)-3(2H)-pyridazinone] |
| 7.59 | 36.8 | CCOc1ccccc1N1CCN(CCNc2cnn(C)c(=O)c2Cl)CC1 [2-Methyl-4-chloro-5-((2-(4-(2-ethoxyphenyl)piperazinyl-1)ethyl)amino)-3(2H)-pyridazinone] |
| 28.2 | 398 | Cn1ncc(NCCN2CCN(c3ccccc3F)CC2)c(Cl)c1=O [2-Methyl-4-chloro-5-((2-(4-(2-fluorophenyl)piperazinyl-1)ethyl)amino)-3(2H)-pyridazinone] |
| 4.45 | – | Cc1ccccc1N1CCN(CCCNc2c(Cl)cnn(C)c2=O)CC1 [2-Methyl-5-chloro-4-((3-(4-(2-methylphenyl)piperazinyl-1)piperazinyl-1)propyl)amino)-3(2H)-pyridazinone] |
| 12.9 | – | COc1ccccc1N1CCN(CCCN(C)c2c(Cl)cnn(C)c2=O)CC1 [2-Methyl-5-chloro-4-(methyl-(3-(4-(2-methoxyphenyl)piperazinyl-1)propyl)amino)-3(2H)-pyridazinone] |
| 6.5 | – | CCOc1ccccc1N1CCN(CCCNc2cc(Cl)nn(C)c2=O)CC1 [2-Methyl-6-chloro-(3-(4-(4-(2-ethoxyphenyl)piperazinyl-1)propyl)amino)-3(2H)-pyridazinone] |

| Ki (alpha1 adrenoceptors) [nM] | Ki (5-HT-1A receptors) [nM] | SMILES |
| --- | --- | --- |
| 61.6 | – | COc1ccccc1N1CCN(CCNc2cnn(-c3ccccc3)c(=O)c2)CC1 [2-Phenyl-5-((2-(4-(2-methoxyphenyl)piperazinyl-1)ethyl)amino)-3(2H)-pyridazinone] |
| 2.15 | – | COc1ccccc1N1CCN(CCCCNc2c(Cl)cnn(C)c2=O)CC1 [2-methyl-5-chloro-4-((4-(4-(2-methoxyphenyl)-1-piperazinyl)butyl)amino)-3(2H)-pyridazinone] |
| 60.8 | – | COc1ccccc1N1CCN(CCNc2ccnn(C(C)(C)C)c2=O)CC1 [2-t-Butyl-4-((2-(4-(2-methoxyphenyl)piperazinyl-1)ethyl)amino)-3(2H)-pyridazinone] |
| 84 | – | O=c1[nH]nccc1NCCN1CCN(c2ccccc2O)CC1 [4((2-(4-(2-Hydroxyphenyl)piperazinyl-1)ethyl)amino)-3(2H)-pyridazinone] |
| 42.2 | – | COc1ccccc1N1CCN(CCNc2ccn[nH]c2=O)CC1 [4-((2-(4-(2-Methoxyphenyl)piperazinyl-1)ethyl)amino)-3(2H)-pyridazinone] |
| 13 | – | CCOc1ccccc1N1CCN(CCCNc2ccn[nH]c2=O)CC1 [4-((3-(4-(2-Ethoxyphenyl)piperazinyl-1)propyl)amino)-3(2H)pyridazinone] |
| 26.1 | – | COc1ccccc1N1CCN(CCCNc2ccn[nH]c2=O)CC1 [4-((3-(4-(2-Methoxyphenyl)piperazinyl-1)propyl)amino) -3(2H)-pyridazinone] |
| 4.64 | – | COc1ccccc1N1CCN(CCCCNc2ccn[nH]c2=O)CC1 [4-((4-(4-(2-Methoxyphenyl)piperazinyl-1)butyl)amino) -3(2H)-pyridazinone] |
| 2.95 | – | COc1ccccc1N1CCN(CCNc2c(Cl)cn[nH]c2=O)CC1 [5-Chloro-4-((2-(4-methoxyphenyl)piperazinyl-1)ethyl)amino)-3(2H)-pyridazinone] |
| 18 | – | CCn1nc(Cl)cc(NCCCN2CCN(c3ccccc3OC)CC2)c1=O [6-Chloro-2-ethyl-4-((3-(4-(2-methoxyphenyl)-1-piperazinyl)propyl)amino)-3(2H)-pyridazinone] |
| 9.6 | – | COc1ccccc1N1CCN(CCCNc2cc(Cl)nn(CCO)c2=O)CC1 [6-Chloro-2-hydroxyethyl-4-((3-(4-(2-methoxyphenyl)piperazinyl-1)propyl)amino)-3(2H)-pyridazinone] |
| 10 | – | CC(C)Oc1ccccc1N1CCN(CCNc2cc(Cl)n[nH]c2=O)CC1 [6-Chloro-4-((2-(4-(2-iso-propoxyphenyl)piperazinyl-1)ethyl)amino)-3(2H)-pyridazinone] |
| 12.8 | – | COc1ccccc1N1CCN(CCNc2cc(Cl)n[nH]c2=O)CC1 [6-Chloro-4-((2-(4-(2-methoxyphenyl)piperazinyl-1)ethyl)amino)-3(2H)-pyridazinone] |
| 7.49 | – | COc1cc(C)ccc1N1CCN(CCCNc2cc(Cl)n[nH]c2=O)CC1 [6-Chloro-4-((3-(4-(2-methoxy-4-methylphenyl)piperazinyl-1)propyl)amino)-3(2H)-pyridazinone] |
| 11 | – | COc1ccccc1N1CCN(CCCNc2cc(Cl)n[nH]c2=O)CC1 [6-Chloro-4-((3-(4-(2-methoxyphenyl)piperazinyl-1)propyl)amino)-3(2H)-pyridazinone] |
| 3.34 | – | COc1ccccc1N1CCN(CCCCNc2cc(Cl)n[nH]c2=O)CC1 [6-Chloro-4-((4-(4-(2-methoxyphenyl)-1-piperazinyl)butyl)amino)-3(2H)-pyridazinone] |

From patent publication US5034391A, “Piperazinylalkyl-3(2H)-pyridazinones and the use thereof as agents lowering blood pressure” (CL Pharma Aktiengesellschaft, priority 1988, dated 1991)
